Results as given in publication PMC7284918, “In-Depth Characterization of EpiIntestinal Microtissue as a Model for Intestinal Drug Absorption and Metabolism in Human” (Pharmaceutics, 2020).

How the values were obtained:
UGT [1] = assay: DME activity in Caco-2: UGT; type: in vitro ADME, human; details: UGT/7-OH-Coumarin, metabolite 7-OH-Coumarin-Glucuronid
Procedure: (§2) For measurements of DME activities in EpiIntestinal microtissues and Caco-2 cells, both were cultured in 96-well Transwell inserts. Drugs (Table 1) were dissolved in the respective solvent at 200x concentration and diluted in a pre-warmed transport buffer. Diluted substrate solution was applied to the apical (100 µL) and basal (250 µL) compartment of the Transwell and incubated at 37 °C and 5% CO2 and 60 rpm continuous shaking. DME activities were determined by monitoring metabolite formation in basal compartment over time (0, 0.5, 1, 2, 3 and 4 h) with LC-MS/MS. […] Chromatographic separation of samples was performed on YMC Triart C18 (1.9 µm, 30 × 2 mm; YMC Europe, Dinslaken, Germany) LC analytical column. Quantification of all metabolites listed in Table 1 was achieved by the use of calibration curves for the individual metabolites with appropriate concentration ranges.
(§3) A total of 10 µL of the incubation sample were diluted with 90 µL of water containing 10–20% ACN or methanol, 0.1% formic acid and the respective internal standard. To analyze the intracellular metabolite concentration, cells on Transwell inserts were washed twice with ice-cold PBS and stored at −80 °C for 20 min. Afterwards, 150 µL 50% ACN diluted with transport buffer was added to the cells and incubated at room temperature for 30 min. […]

SULT [2] = assay: DME activity in EpiIntestinal microtissues: SULT; type: in vitro ADME, human; details: SULT/7-OH-Coumarin, metabolite 7-OH-Coumarin-Sulfat
Procedure: as §2, §3

SULT [3] = assay: DME activity in Caco-2: SULT; type: in vitro ADME, human; details: SULT/7-OH-Coumarin, metabolite 7-OH-Coumarin-Sulfat
Procedure: as §2, §3

UGT [4] = assay: DME activity in EpiIntestinal microtissues: UGT; type: in vitro ADME, human; details: UGT/7-OH-Coumarin, metabolite 7-OH-Coumarin-Glucuronid
Procedure: as §2, §3

CYP2D6 [5] = molecular target: T1, CYP2D6 (Homo sapiens, UniProt P10635); assay: DME activity in EpiIntestinal microtissues: CYP2D6; type: in vitro ADME; details: CYP2D6/Dextromethorphan, metabolite Dextrorphan
T1 construct: endogenous in cells; host or cells: Caco-2 cells in 96-well Transwell inserts
T1 sequence (P10635 whole entry): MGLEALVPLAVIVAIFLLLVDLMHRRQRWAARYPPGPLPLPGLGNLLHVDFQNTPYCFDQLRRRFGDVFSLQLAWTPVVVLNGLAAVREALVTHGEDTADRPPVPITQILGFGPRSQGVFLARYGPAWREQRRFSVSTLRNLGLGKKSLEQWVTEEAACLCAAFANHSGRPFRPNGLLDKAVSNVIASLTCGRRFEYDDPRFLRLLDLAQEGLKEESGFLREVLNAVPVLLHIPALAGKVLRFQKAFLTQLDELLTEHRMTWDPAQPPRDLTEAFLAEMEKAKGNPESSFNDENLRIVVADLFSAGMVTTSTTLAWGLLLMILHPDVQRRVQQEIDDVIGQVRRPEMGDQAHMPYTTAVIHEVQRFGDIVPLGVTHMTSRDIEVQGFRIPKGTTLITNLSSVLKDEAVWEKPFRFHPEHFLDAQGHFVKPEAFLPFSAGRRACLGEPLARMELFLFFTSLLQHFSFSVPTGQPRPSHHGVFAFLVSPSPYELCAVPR
Procedure: as §2, §3

CYP2D6 [6] = molecular target: T1, CYP2D6; assay: DME activity in Caco-2: CYP2D6; type: in vitro ADME; details: CYP2D6/Dextromethorphan, metabolite Dextrorphan
Procedure: as §2, §3

Caco-2 cells = assay: Bidirectional permeability assay in Caco-2; type: in vitro ADME, human; details: with P-gp inhibitor Zosuqidar (5 µM)
P-gp = assay: Bidirectional permeability assay in Caco-2; type: in vitro ADME, human; details: human, pH 7.4, with Zosuqidar (5 µM), with P-gp inhibitor Zosuqidar (5 µM)
[7] = Bidirectional permeability assay in Caco-2; type: in vitro ADME, human; details: human, no inhibitor, mean of duplicates
BCRP = assay: Bidirectional permeability assay in Caco-2; type: in vitro ADME, human; details: human, pH 7.4, with Ko-143 (3 µM), with BCRP inhibitor Ko-143 (3 µM)
[8] = tested on: EpiIntestinal microtissues; assay: Bidirectional permeability assay in EpiIntestinal microtissues; type: in vitro ADME, human
Procedure: Caco-2 cells were obtained from Leibniz Institute DSMZ-German Collection of Microorganisms and Cell Cultures (Braunschweig, Germany) and cultured in DMEM containing 10% FCS, 1% NEAA, 2 mM Glutamin, 100 U/mL Penicillin and 100 µg/mL Streptomycin. […] EpiIntestinal microtissues were obtained from MatTek (Bratislav, Slovakia) and cultured according to the manufacturer’s instruction (24-well format for bidirectional permeability assays and GI firstpass availability assays and 96-well format for screening of DME activities).
Bidirectional permeability assays were performed as described previously. […] In indicated experiments, inhibitors were added to both compartments. Cells were incubated with the compounds for up to 2 h. Samples from the opposite compartment were taken at different timepoints. […] Prior to bioanalysis samples were spiked with internal standard solution and diluted with acetonitrile (ACN) for protein precipitation. Measurement was operated in multiple reaction monitoring (MRM) mode. Quantification was performed using external calibration. Apparent permeability coefficients in the apical to basal direction (Papp,AB) and in the basal to apical direction (Papp,BA) and efflux were calculated as follows Papp,AB=QAB/(C0×s×t) Papp,BA=QBA/(C0×s×t) Efflux=Papp,BA/Papp,AB where Q is the amount of compound recovered in the receiver compartment after the incubation time t, C0 the initial compound concentration given to the donor compartment, and s the surface area of the Transwell inserts. Efflux ratio is calculated as the quotient of Papp,BA to Papp,AB. […] In addition, Transepithelial electrical resistance (TEER) values are measured for each plate before the permeability assay and total recovery in donor and receiver compartments was determined for each compound. All these parameters (efflux of apafant, Papp values of the low permeable compound, TEER values, and total recovery) are used to ensure the quality of the assays.

[9] = human, clinical; cited from earlier work
[10] = Intestinal first-pass availability in EpiIntestinal microtissues; type: in vitro ADME, human; details: human, EpiIntestinal microtissues, 10 µM apical, GI firstpass availability, read-out: Recovery in Basal Comp. @ 24h (%)
Procedure: Compounds were diluted in culture media to a final concentration of 10 µM and added to the apical (donor) compartment (total volume: 100 µL for EpiIntestinal and 200 µL for Caco-2). After the incubation at 37 °C for 2, 4, 6, and 24 h, samples (50 µL) were taken from the basal (receiver) compartment (total volume: 5000 µL for EpiIntestinal and 800 µL for Caco-2). After the last timepoint, samples from the donor compartments and the cell lysates were also collected. Compound concentrations in the samples were determined by HPLC-MS/MS (Section 2.3).
GI first-pass availability of the tested compounds was expressed as fraction (%) of the total amount of a compound added to the donor compartment recovered in the receiver compartment.

in vitro = details: human, blood
Excerpt: Blood CLb can be converted from plasma clearance CLp with the blood-to-plasma ratio RB: CLb=CLp/RB

CES1 and CES2 [11] = assay: CES-mediated metabolism of dabigatran etexilate in Caco-2 cells; type: in vitro ADME, human; details: Caco-2 on Transwell; 10 µM apical; basal compartment
Procedure: (§1) CES-mediated metabolism of dabigatran etexilate was measured in cryopreserved human hepatocytes (BioIVT, West Sussex, UK) and cryopreserved human intestinal mucosa (in vitro ADMET laboratories, Columbia, MD, USA) in suspension and in Caco-2 cells and EpiIntestinal microtissues grown on Transwell inserts. Dabigatran etexilate was diluted in culture media for the respective cells or tissues. The final concentrations of dabigatran etexilate were selected in an earlier experiment to ensure reasonable turnover of the compound within the incubation time: 2 µM for hepatocytes and intestinal mucosa, 10 µM for Caco-2 and EpiIntestinal microtissues. In the experiments with Transwell inserts, dabigatran etexilate was given to the apical compartments, metabolites were measured in the basal (receiver) compartments. Concentrations of the metabolites were determined by HPLC-MS/MS (Section 2.3).

CES1 and CES2 [12] = assay: CES-mediated metabolism of dabigatran etexilate in human intestinal mucosa (HIM); type: in vitro ADME; details: human intestinal mucosa in suspension; 2 µM
Procedure: as §1

CES1 and CES2 [13] = assay: CES-mediated metabolism of dabigatran etexilate in human hepatocytes (huHEP); type: in vitro ADME; details: human hepatocytes in suspension; 2 µM
Procedure: as §1

CES1 and CES2 [14] = assay: CES-mediated metabolism of dabigatran etexilate in EpiIntestinal microtissues; type: in vitro ADME, human; details: EpiIntestinal on Transwell; 10 µM apical; basal compartment
Procedure: as §1

[15] = with BCRP inhibitor Ko-143 (3 µM)
[16] = with P-gp inhibitor Zosuqidar (5 µM)

Structure (SMILES): O=c1ccc2ccc(O)cc2o1 [7-OH-Coumarin]
- Intracellular Metabolite (% of Total) (UGT [1]): 5.5 % of Total
- Intracellular Metabolite (% of Total) (SULT [2]): 3.4 % of Total
- Intracellular Metabolite (% of Total) (SULT [3]): BLQ
- Intracellular Metabolite (% of Total) (UGT [4]): 10.0 % of Total

Structure (SMILES): COc1ccc2c(c1)[C@]13CCCC[C@@H]1[C@H](C2)N(C)CC3 [Dextromethorphan]
- Intracellular Metabolite (% of Total) (CYP2D6 [5]): BLQ
- Intracellular Metabolite (% of Total) (CYP2D6 [6]): BLQ

Structure (SMILES): CC(C)c1nc(N(C)S(C)(=O)=O)nc(-c2ccc(F)cc2)c1/C=C/[C@@H](O)C[C@@H](O)CC(=O)O [Rosuvastatin]
- PappAB (Caco-2 cells): 0.3 10^−6 cm/s
- efflux ratio at 10 µM (P-gp): 19
- Papp A→B at 10 µM ([7]; pH 7.4, 10 µM): 0.3 ×10⁻⁶ cm/s
- efflux ratio at 10 µM ([7]; pH 7.4, Papp,BA/Papp,AB): 21
- efflux ratio at 10 µM (BCRP): 5.5
- Efflux ([8]; Papp,BA/Papp,AB, no inhibitor, mean of triplicates): 100.0
- Efflux [8, 15]: 3.1
- PappAB [8, 15]: 2.6 10^−6 cm/s
- Efflux [8, 16]: 25
- PappAB [8, 16]: 0.9 10^−6 cm/s
- F (total oral availability) [9]: 0.2 [8]
- fe (fraction of renal excretion) [9]: 0.3 [23]
- recovery at 24 h, 10 µM [10]: 30%
- blood plasma ratio (in vitro): 0.75

Structure (SMILES): CCCCCCOC(=O)NC(=N)c1ccc(NCc2nc3cc(C(=O)N(CCC(=O)OCC)c4ccccn4)ccc3n2C)cc1 [dabigatran etexilate]
- Main metabolite of dabigatran etexilate (CES1 and CES2 [11]): BIBR 1087
- Main metabolite of dabigatran etexilate (CES1 and CES2 [12]): BIBR 951
- Main metabolite of dabigatran etexilate (CES1 and CES2 [13]): BIBR 1087
- Main metabolite of dabigatran etexilate (CES1 and CES2 [14]): BIBR 953
